Experimental findings from patent US11866720B2, “Transgenic or non-transgenic plants with mutated protoporphyrinogen oxidase having increased tolerance to herbicides” (priority 2013, dated 2024) are described below.

Substitutions are numbered along the chain they refer to. Several values for one entry are separate records, joined by “and”; a condition that tells them apart may be missing. Equal values may be shown once.

Assay in all cases: biochemical
The target of experiment [1] is recombinant wildtype and mutated PPO (Amaranthus PPO2: PPX2L_WC SEQ ID NO 2, PPX2L_AC SEQ ID NO 4, dG210 SEQ ID NO 6 & 8) (Amaranthus tuberculatus, UniProt Q0NZW9, D133A/F420L/R128C). The settings on record: IC50 (M).
Experiment [2] addresses T1, recombinant wildtype and mutated PPO (Amaranthus PPO2: PPX2L_WC SEQ ID NO 2, PPX2L_AC SEQ ID NO 4, dG210 SEQ ID NO 6 & 8) (Amaranthus tuberculatus, UniProt Q0NZW9, D133A/F420M/R128Y).
T1 sequence (Q0NZW9 1-534 R128Y/D133A/F420M): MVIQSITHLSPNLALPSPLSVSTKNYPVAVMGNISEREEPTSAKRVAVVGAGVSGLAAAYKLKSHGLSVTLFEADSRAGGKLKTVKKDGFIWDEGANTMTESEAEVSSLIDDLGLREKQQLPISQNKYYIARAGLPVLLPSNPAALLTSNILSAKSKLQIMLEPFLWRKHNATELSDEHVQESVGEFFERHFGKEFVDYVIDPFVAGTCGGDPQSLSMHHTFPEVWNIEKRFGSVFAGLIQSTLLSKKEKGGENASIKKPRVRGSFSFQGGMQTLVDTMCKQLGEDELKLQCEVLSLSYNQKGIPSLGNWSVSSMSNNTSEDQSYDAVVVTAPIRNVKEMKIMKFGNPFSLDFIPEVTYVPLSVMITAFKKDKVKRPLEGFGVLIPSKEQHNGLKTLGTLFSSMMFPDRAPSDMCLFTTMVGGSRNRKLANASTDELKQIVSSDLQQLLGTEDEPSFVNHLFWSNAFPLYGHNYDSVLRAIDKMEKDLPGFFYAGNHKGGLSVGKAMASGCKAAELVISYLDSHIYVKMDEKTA
The settings on record: IC50 (M).

Experiment [3] deals with T2, recombinant wildtype and mutated PPO (Amaranthus PPO2: PPX2L_WC SEQ ID NO 2, PPX2L_AC SEQ ID NO 4, dG210 SEQ ID NO 6 & 8) (Amaranthus tuberculatus, UniProt Q0NZW9, D133A/F420V/R128I).
T2 sequence (Q0NZW9 1-534 R128I/D133A/F420V): T1 sequence (Q0NZW9 1-534 R128Y/D133A/F420M) with Y128I, M420V
The note with it: IC50 (M).

The target in experiment [4] is T3, recombinant wildtype and mutated PPO (Amaranthus PPO2: PPX2L_WC SEQ ID NO 2, PPX2L_AC SEQ ID NO 4, dG210 SEQ ID NO 6 & 8) (Amaranthus tuberculatus, UniProt Q0NZW9, D133A/F420L/R128F).
T3 sequence (Q0NZW9 1-534 R128F/D133A/F420L): T1 sequence (Q0NZW9 1-534 R128Y/D133A/F420M) with Y128F, M420L
The settings on record: IC50 (M).

In experiment [5] the target is T4, recombinant wildtype and mutated PPO (Amaranthus PPO2: PPX2L_WC SEQ ID NO 2, PPX2L_AC SEQ ID NO 4, dG210 SEQ ID NO 6 & 8) (Amaranthus tuberculatus, UniProt Q0NZW9, R128A/F420L, form not given).
T4 sequence (Q0NZW9 1-534 R128A/F420L): T1 sequence (Q0NZW9 1-534 R128Y/D133A/F420M) with Y128A, A133D, M420L

recombinant wildtype and mutated PPO (Amaranthus PPO2: PPX2L_WC SEQ ID NO 2, PPX2L_AC SEQ ID NO 4, dG210 SEQ ID NO 6 & 8) (Amaranthus tuberculatus, UniProt Q0NZW9, D133A/F420L/R128C), sequence (Q0NZW9 1-534 R128C/D133A/F420L): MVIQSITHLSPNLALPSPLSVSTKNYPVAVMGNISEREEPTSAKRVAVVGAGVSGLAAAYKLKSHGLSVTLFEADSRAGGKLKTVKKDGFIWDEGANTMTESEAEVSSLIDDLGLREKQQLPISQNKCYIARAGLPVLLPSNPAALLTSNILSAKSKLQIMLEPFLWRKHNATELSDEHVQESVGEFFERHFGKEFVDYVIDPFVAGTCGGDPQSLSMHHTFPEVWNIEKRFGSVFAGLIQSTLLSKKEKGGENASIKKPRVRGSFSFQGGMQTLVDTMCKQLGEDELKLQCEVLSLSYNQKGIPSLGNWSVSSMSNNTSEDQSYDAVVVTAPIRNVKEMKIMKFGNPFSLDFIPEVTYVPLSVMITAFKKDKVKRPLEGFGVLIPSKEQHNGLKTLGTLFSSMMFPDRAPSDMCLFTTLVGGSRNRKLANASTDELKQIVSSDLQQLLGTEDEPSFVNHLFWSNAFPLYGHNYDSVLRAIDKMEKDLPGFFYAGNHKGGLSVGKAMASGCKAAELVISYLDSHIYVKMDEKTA

As to `CS(=O)(=O)NC(=O)c1cc(Oc2ccc(C(F)(F)F)cc2Cl)ccc1[N+](=O)[O-]` [Fomesafen, fomesafen], the values for the IC50 in experiment [1], in experiment [2] and in experiment [3] were at least 1e-05 M, at least 1e-05 M and 2.79e-06 M, respectively.

Regarding `CCOC(=O)C(Cl)Cc1cc(-n2nc(C)n(C(F)F)c2=O)c(F)cc1Cl` (stereo not drawn) [CARFENTRAZONE-ETHYL], the IC50 – broadly, the concentration that inhibits the measured activity by half – in experiment [1] worked out at 3.08e-07 M; in experiment [2], 8.52e-08 M; in experiment [3], 2.07e-07 M.

In the case of `C#CCN1C(=O)C(F)(F)Oc2cc(F)c(-n3c(=O)n(C)c(=S)n(C)c3=O)cc21`, the IC50 is 1e-07 M and 1.83e-07 M in experiment [1]; 1.01e-06 M in experiment [4]; 2.85e-07 M and 1.02e-07 M in experiment [2]; 2.14e-07 M and 3.15e-07 M in experiment [3].

For the compound `O=C(O)c1cc(Oc2ccc(C(F)(F)F)cc2Cl)ccc1[N+](=O)[O-]` [ACIFLUORFEN], the IC50 was at least 1e-05 M in experiment [1], at least 1e-05 M in experiment [2] and 1.21e-05 M in experiment [3].

As for `COC(Oc1ccccc1Oc1cc(-n2c(=O)cc(C(F)(F)F)n(C)c2=O)c(F)cc1Cl)C(=O)OC1CCCCC1` (stereo not drawn), the IC50 in experiment [4] was found to be 1.18e-06 M; in experiment [3] it was 3.78e-08 M; in experiment [5], 93.7 nM.

Take `C#CCN1C(=O)C(F)(F)Oc2cc(F)c(N3C(=O)C4=C(CCCC4)C3=O)cc21`: the IC50 in experiment [1] was at least 1e-05 M; in experiment [2], at least 1e-05 M; in experiment [3] it was 4.32e-06 M; in experiment [5], 11400 nM.

Regarding `COC(=O)C(OC)Oc1ccccc1Oc1cc(-n2c(=O)cc(C(F)(F)F)n(C)c2=O)c(F)cc1Cl` (stereo not drawn), the IC50 in experiment [4] came out at 4.84e-08 M; in experiment [3] it was 1.71e-08 M; in experiment [5], 47 nM.

Regarding `C#CCN1C(=O)COc2cc(F)c(N3C(=O)C4=C(CCCC4)C3=O)cc21` [Flumioxazin, flumioxazin], the IC50 in experiment [1], in experiment [2] and in experiment [3] was at least 1e-05 M in each case.

Regarding `CCOc1cc(Oc2ccc(C(F)(F)F)cc2Cl)ccc1[N+](=O)[O-]` [OXIFLUORFEN], the IC50 in experiment [1] is 1.49e-06 M; in experiment [2], 1.13e-06 M; in experiment [3], 1.98e-07 M.

`CCOC(=O)COc1ncccc1Oc1cc(-n2c(=O)cc(C(F)(F)F)n(C)c2=O)c(F)cc1Cl` [A.13, ethyl [3-[2-chloro-4-fluoro-5-(1-methyl-6-trifluoromethyl-2,4-dioxo-1,2,3,4-tetrahydropyrimidin-3-yl)phenoxy]-2-pyridyloxy]acetate]: the IC50 in experiment [1] was determined as 6.81e-07 M; in experiment [2], 8.92e-08 M; in experiment [3], 4.38e-08 M.

For `C=CCOC(=O)C(C)(C)OC(=O)c1cc(-n2c(=O)cc(C(F)(F)F)n(C)c2=O)ccc1Cl` [BUTAFENACIL], the IC50 in experiment [1] turned out to be 1.1e-07 M; in experiment [2], 5.04e-08 M; in experiment [3] it was 2.56e-08 M.

Take `C#CCN1C(=O)C(F)(F)Oc2cc(F)c(-n3c(=O)cc(C(F)(F)F)n(C)c3=O)cc21`: the IC50 was found to be 6.72e-08 M in experiment [1], 1.13e-07 M in experiment [2], 9.01e-08 M in experiment [3] and 16.2 nM in experiment [5].

With `CCOC(=O)C(C)OC(=O)c1cc(Oc2ccc(C(F)(F)F)cc2Cl)ccc1[N+](=O)[O-]` (stereo not drawn) [Lactofen, lactofen], the IC50 came out at 1.42e-07 M in experiment [1], 1.43e-07 M in experiment [2] and 1.4e-08 M in experiment [3].
